# “Also recorded” adds a separate entry of the source.
# What was measured:
# [1] = system: NIH Swiss mice; experiment: PTZ seizure threshold test (intravenous PTZ infusion); assay type: in vivo, mouse; conditions: for anticonvulsant activity in the PTZ seizure threshold test (seizure threshold): 50 mg/kg (5 mg/ml) and 100 mg/kg (10 mg/ml)
# Experimental: (§1) Animals. Male NIH Swiss mice (22-30 g) were housed four per cage. Animals were kept in a vivarium under controlled laboratory conditions (temperature, 22-26° C.; humidity, 40-50%) with an artificial 12-h light/dark cycle and free access to food and water. Animals were allowed to acclimate to the vivarium for ≥5 days. The experiments were performed during the light phase of the light/dark cycle after a ≥30-min period of acclimation to the experimental room. Animals were maintained in facilities fully accredited by the Association for Assessment and Accreditation of Laboratory Animal Care, and all studies were performed under protocols approved by the University of California, Davis, Institutional Animal Care and Use Committee the Animal Care and Use in strict compliance with the Guide for the Care and Use of Laboratory Animals of the National Research Council (National Academy Press, Washington, D.C.; on the internet at nap.edu/readingroom/books/labrats/).
# (§2) Test substances and drug administration. Solutions of allopreganolone (SAFC Pharma, Madison, Wis., U.S.A.) were made in miglyol (Neobee M5®, Spectrum Chemicals, Gardena, Calif.), canola oil (ConAgra Foods, Omaha, Nebr.) or peanut oil (Sigma-Aldrich, St. Louis, Mo.). The convulsant agent pentylenetetrazol (PTZ) (Sigma-Aldrich, St. Louis, Mo.) was dissolved in saline immediately before use and administered intravenously (i.v.). For the PTZ threshold test, allopregnanolone solutions were administered orally (p.o.) 30 min, 1 hr and 2 hr before PTZ infusion, in a volume equaling 10 ml/kg. For the 6-Hz seizure test, solutions of allopregnanolone in canola oil were administered in a volume equaling 20 ml/kg.
# PTZ seizure threshold test. The threshold for various behavioral seizure stages induced by the GABA receptor antagonist PTZ, was determined by infusing PTZ via a 27-gauge, 0.75-inch “butterfly” needle inserted into the lateral tail vein. The needle was secured to the tail vein by a narrow piece of adhesive tape, and the animal was permitted to move freely inside an inverted plastic container with free aeration from the top. PTZ (10 mg/ml) were infused at a constant rate of 0.5 ml/min using a 1-ml syringe (BD Biosciences, Franklin Lakes, N.J.) mounted on a Harvard infusion pump (Harvard Apparatus Inc., Holliston, Mass.). The syringe was connected to the needle by polyethylene tubing. The infusion was stopped at 3 min or at the onset of tonic extension, whichever occurred first. The thresholds to the onset of tonic hindlimb extension were determined by measuring the latency from the start of convulsant infusion to the onset of all the response. The threshold value (milligrams per kilogram) was determined according to the following formula: (infusion duration [seconds]×infusion rate [milliliters per minute]×convulsant drug concentration [milligrams per milliliter]×1000)/(60 s×weight of mouse [grams]).
# [2] = system: NIH Swiss mice; experiment: 6-Hz seizure test; assay type: in vivo, mouse; conditions: dissolved in canola oil (10 mg/ml), 200 mg/kg, 32 mA for 3 s
# Experimental: as §1
# Test substances and drug administration. Solutions of allopreganolone (SAFC Pharma, Madison, Wis., U.S.A.) were made in miglyol (Neobee M5®, Spectrum Chemicals, Gardena, Calif.), canola oil (ConAgra Foods, Omaha, Nebr.) or peanut oil (Sigma-Aldrich, St. Louis, Mo.). […]
# 6-Hz seizure test. […] Animals were scored as protected or not protected. […]
# [3] = system: NIH Swiss mice; experiment: PTZ seizure challenge (80 mg/kg PTZ s.c.); assay type: in vivo, mouse
# Experimental: (§3) NIH Swiss mice were fasted 2 hours prior to experiment participation. Allopregnanolone (ALP) was suspended in vehicle (Tween 80 or canola oil). The time point of maximal effect of ALP was established by gavaging ALP and scoring relevant behavioral parameters outlined in the Irwin Test. See, Sylvain Roux, et al., Current Protocols in Pharmacology, Unit Number: UNIT 10.10, DOI: 10.1002/0471141755.ph1010s27 Online Posting Date: January, 2005. Lethality, convulsion, tremor, Straub, abnormal gait, fear, sedation, reactivity to touch, loss of traction, loss of righting reflex were measured.
# Anticonvulsant potential of ALP was determined with PTZ seizure challenge. Oral gavage various ALP concentrations at 50 μl/10 g body weight, t=−45 min or t=−90 min, 80 mg/kg PTZ s.c. at t=0. Observe 30 min for seizure protection (absence of clonic spasms).
# [4] = system: NIH Swiss mice; experiment: Irwin Test behavioral scoring (sedation); assay type: in vivo, mouse; conditions: 250 mg/kg in canola oil, oral
# Experimental: as §3
# [5] = Central nervous system effects of allopregnanolone in aqueous hydroxypropyl-beta-cyclodextrin solution; assay type: in vivo
# [6] = Dissolution of allopregnanolone in oils; assay type: physicochemical; conditions: three oils: miglyol, canola oil, peanut oil
# Experimental: as §2
# [7] = oral delivery in canola oil (FIG. 4)
smiles,measurement,setting,value
"CC(=O)[C@H]1CCC2C3CC[C@H]4C[C@H](O)CC[C@]4(C)C3CC[C@@]21C (stereo in doubt) [allopregnanolone, 1-(3-Hydroxy-10,13-dimethyl-2,3,4,5,6,7,8,9,11,12,14,15,16,17-tetradecahydro-1H-cyclopenta[a]phenanthren-17-yl)ethanone]",duration of anti-seizure activity,"[1]; dissolved in canola oil and peanut oil, oral route",long-lasting anti-seizure activity
same,anti-seizure activity 120 to 240 min after administration,"[1]; dissolved in canola oil or peanut oil, oral, 120 to 240 min after administration, in some cases",activity was also present
same,anti-seizure activity 30 min after administration,"[1]; dissolved in canola oil or peanut oil, oral, 30 min after administration",no or only minimal activity
same,anti-seizure activity 60 min after administration,"[1]; dissolved in canola oil or peanut oil, oral, 60 min after administration",strong activity
same,anticonvulsant activity in the PTZ seizure threshold test (seizure threshold),"[1]; dissolved in canola oil, orally administered",activity was obtained; also recorded: time-dependent increase in seizure threshold
same,anticonvulsant activity in the PTZ seizure threshold test,"[1]; dissolved in miglyol, orally administered, 100 mg/kg",no bioactivity; also recorded: no activity; also recorded: inactive
same,anticonvulsant activity in the PTZ seizure threshold test (seizure threshold),"[1]; dissolved in peanut oil, orally administered",activity was obtained; also recorded: time-dependent increase in seizure threshold
same,activity in the 6-Hz seizure test,[2],had activity
same,anticonvulsant activity in the pentylenetetrazol seizure test,"[3]; 250 mg/kg in canola oil, oral",anticonvulsant activity
same,effective threshold dose,[3]; [7],25 to 75 mg/kg
same,oral bioavailability,[3]; [7],markedly enhances
same,sedation,[4],profound sedation
same,central nervous system effects,[5]; high doses administered orally in aqueous solution of hydroxypropyl-beta-cyclodextrin,failed to produce central nervous system effects
same,central nervous system effects,[5]; parenteral administration as aqueous solution in hydroxypropyl-beta-cyclodextrin,readily causes central nervous system effects
same,dissolution in oils,[6],readily dissolve

# — US10478505B2, “Edible oils to enhance delivery of orally administered steroids” (The Regents of the University of California, priority 2011, dated 2019)
